{"source": "patent US20110104281A1", "about": "“METHOD FOR TREATING PAIN USING A SUBSTITUTED 2-AMINOTETRALIN COMPOUND” (UCB PHARMA GMBH, priority 2006, published 2011)", "origin": "cited, not measured here", "key": {"D3 receptor": {"target": "D3 receptor (Homo sapiens, UniProt P35462)", "sequence (P35462 whole entry)": "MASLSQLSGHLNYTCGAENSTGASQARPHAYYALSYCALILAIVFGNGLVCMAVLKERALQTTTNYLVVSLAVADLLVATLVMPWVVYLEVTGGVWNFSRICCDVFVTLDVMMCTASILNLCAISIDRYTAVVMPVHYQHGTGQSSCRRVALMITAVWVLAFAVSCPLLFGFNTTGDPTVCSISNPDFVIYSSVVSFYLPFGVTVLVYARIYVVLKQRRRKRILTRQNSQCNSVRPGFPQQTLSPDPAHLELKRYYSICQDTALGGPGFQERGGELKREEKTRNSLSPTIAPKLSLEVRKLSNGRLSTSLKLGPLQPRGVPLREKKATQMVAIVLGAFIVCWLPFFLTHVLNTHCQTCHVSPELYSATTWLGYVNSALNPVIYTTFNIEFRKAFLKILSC", "settings": "cited from earlier work"}, "D1 receptor": {"target": "D1 receptor (Homo sapiens, UniProt P21728)", "sequence (P21728 whole entry)": "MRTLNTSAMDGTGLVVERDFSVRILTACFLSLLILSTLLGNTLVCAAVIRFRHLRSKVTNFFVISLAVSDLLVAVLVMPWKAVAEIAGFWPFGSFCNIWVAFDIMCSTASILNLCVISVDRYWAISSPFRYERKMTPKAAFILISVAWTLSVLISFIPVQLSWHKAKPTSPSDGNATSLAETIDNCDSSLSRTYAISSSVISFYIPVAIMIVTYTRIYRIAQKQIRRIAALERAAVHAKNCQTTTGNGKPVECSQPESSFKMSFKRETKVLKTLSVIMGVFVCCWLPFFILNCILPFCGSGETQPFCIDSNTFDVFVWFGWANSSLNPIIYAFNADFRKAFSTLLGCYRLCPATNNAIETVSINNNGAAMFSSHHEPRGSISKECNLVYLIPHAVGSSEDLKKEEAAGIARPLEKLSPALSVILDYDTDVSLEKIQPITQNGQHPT", "settings": "cited from earlier work"}, "5-HT1A receptor": {"target": "5-HT1A receptor (Homo sapiens, UniProt P08908)", "sequence (P08908 whole entry)": "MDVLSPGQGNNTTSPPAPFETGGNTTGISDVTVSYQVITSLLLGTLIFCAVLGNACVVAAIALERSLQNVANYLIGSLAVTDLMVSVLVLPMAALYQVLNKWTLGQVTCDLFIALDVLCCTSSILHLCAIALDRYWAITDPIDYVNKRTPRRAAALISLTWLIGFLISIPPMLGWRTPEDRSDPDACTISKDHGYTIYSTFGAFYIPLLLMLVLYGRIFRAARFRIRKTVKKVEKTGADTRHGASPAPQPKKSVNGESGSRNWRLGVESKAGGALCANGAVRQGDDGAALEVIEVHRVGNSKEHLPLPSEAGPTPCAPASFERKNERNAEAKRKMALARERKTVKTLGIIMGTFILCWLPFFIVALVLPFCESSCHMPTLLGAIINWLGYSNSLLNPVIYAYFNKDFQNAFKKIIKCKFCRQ", "settings": "cited from earlier work"}, "α2B receptor": {"target": "α2B receptor (Homo sapiens, UniProt P18089)", "sequence (P18089 whole entry)": "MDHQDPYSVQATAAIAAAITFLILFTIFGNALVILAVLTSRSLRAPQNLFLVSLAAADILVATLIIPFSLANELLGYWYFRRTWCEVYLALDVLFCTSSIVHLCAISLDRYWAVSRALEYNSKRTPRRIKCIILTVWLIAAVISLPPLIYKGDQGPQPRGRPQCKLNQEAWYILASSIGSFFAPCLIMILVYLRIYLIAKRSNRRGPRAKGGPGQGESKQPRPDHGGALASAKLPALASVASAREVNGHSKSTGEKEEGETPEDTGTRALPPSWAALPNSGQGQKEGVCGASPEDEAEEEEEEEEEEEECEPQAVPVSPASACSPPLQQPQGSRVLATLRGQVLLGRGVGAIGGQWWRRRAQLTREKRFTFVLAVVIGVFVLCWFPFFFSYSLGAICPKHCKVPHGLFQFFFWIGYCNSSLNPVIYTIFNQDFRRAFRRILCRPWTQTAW", "settings": "cited from earlier work"}, "5-HT7": {"target": "5-HT7 (Homo sapiens, UniProt P34969)", "sequence (P34969 whole entry, species assumed)": "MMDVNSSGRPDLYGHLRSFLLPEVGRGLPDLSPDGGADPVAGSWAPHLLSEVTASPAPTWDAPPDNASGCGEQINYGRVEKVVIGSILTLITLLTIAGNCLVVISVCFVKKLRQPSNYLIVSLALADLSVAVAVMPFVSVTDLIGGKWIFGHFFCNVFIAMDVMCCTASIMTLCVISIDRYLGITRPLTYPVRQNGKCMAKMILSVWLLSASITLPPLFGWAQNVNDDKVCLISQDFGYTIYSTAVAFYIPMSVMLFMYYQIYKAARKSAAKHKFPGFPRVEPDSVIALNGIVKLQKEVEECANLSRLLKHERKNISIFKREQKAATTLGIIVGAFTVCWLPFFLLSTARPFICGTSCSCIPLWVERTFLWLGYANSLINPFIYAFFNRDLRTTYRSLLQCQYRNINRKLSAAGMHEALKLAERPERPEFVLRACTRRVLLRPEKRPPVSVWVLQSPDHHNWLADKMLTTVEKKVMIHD", "settings": "cited from earlier work"}, "α2C": {"target": "α2C (Homo sapiens, UniProt P18825)", "sequence (P18825 whole entry)": "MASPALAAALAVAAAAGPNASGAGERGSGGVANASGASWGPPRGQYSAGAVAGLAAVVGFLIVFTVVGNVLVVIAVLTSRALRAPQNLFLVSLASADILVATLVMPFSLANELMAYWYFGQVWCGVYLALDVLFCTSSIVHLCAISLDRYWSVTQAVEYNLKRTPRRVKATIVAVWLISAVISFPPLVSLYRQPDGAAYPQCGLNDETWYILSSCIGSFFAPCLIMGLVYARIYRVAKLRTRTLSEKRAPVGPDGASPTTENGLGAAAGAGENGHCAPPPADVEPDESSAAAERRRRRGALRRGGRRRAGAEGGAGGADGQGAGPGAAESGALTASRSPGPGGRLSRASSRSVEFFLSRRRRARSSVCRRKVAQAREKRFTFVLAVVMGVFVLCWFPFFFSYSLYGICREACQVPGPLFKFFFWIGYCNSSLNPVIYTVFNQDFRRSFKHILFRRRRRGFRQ", "settings": "cited from earlier work"}, "fibromyalgia patients": {"test_system": "fibromyalgia patients", "settings": "preliminary clinical studies; cited from earlier work"}}, "data": [{"smiles": "CCCN[C@H]1CCc2nc(N)sc2C1", "note": "[Pramipexole]", "values": [{"measurement": "Affinity for D3 receptor", "setting": "D3 receptor", "value": "strongest affinity for D3"}, {"measurement": "Affinity for D1 receptor", "setting": "D1 receptor", "value": "only weak or no affinity"}, {"measurement": "Affinity / action at 5-HT1A receptor", "setting": "5-HT1A receptor", "value": "only weak or no affinity"}, {"measurement": "Affinity / action at α2B receptor", "setting": "α2B receptor", "value": "only weak or no affinity"}, {"measurement": "Affinity for 5-HT7", "setting": "5-HT7", "value": "only weak or no affinity"}, {"measurement": "Affinity for α2C", "setting": "α2C", "value": "only weak or no affinity"}, {"measurement": "Pain in fibromyalgia patients", "setting": "fibromyalgia patients", "value": "shown to reduce pain"}]}, {"smiles": "CCCN(CCC)CCc1cccc2c1CC(=O)N2", "note": "[ropinirole]", "values": [{"measurement": "Affinity for D3 receptor", "setting": "D3 receptor", "value": "strongest affinity for D3"}, {"measurement": "Affinity for D1 receptor", "setting": "D1 receptor", "value": "only weak or no affinity"}, {"measurement": "Affinity / action at 5-HT1A receptor", "setting": "5-HT1A receptor", "value": "only weak or no affinity"}, {"measurement": "Affinity / action at α2B receptor", "setting": "α2B receptor", "value": "only weak or no affinity"}, {"measurement": "Affinity for 5-HT7", "setting": "5-HT7", "value": "only weak or no affinity"}, {"measurement": "Affinity for α2C", "setting": "α2C", "value": "only weak or no affinity"}, {"measurement": "Pain in fibromyalgia patients", "setting": "fibromyalgia patients", "value": "shown to reduce pain"}]}]}
